Data reported in PubChem BioAssay (NCI).
Where “and” joins values, the source holds several entries; their conditions need not be identical. Equal entries are not always repeated.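 Exposure lasted 48 hours, with cells grown in 96-well plates and compounds tested at five concentrations. GI50 is the concentration that inhibits growth by half. TGI denotes the concentration required for complete inhibition of growth.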

Tests used:
Experiment in all cases: NCI-60 cell line screen, 48 h
[1] = system: 786-0 renal
[2] = system: SR leukemia
[3] = system: HCC-2998 colon
[4] = system: SK-OV-3 ovarian
[5] = system: OVCAR-5 ovarian
[6] = system: CAKI-1 renal
[7] = system: EKVX NSCLC
[8] = system: SK-MEL-28 melanoma
[9] = system: HOP-92 NSCLC
[10] = system: LOX IMVI melanoma

Row | Structure (SMILES) | TGI [1] | TGI [2] [µM] | TGI [3] | TGI [4] | TGI [5] | TGI [6] | TGI [7] | TGI [8] | TGI [9] [µM] | TGI [10] | GI50 [1] [µM] | GI50 [2] [µM] | GI50 [3] [µM] | GI50 [4] [µM] | GI50 [5] [µM] | GI50 [10] | GI50 [6] | GI50 [7] [µM] | GI50 [8] | GI50 [9]
1 | C[C@H]1CCC2C(CN3CCCCC3)C(=O)OC2[C@]2(C)C(=O)CC(N3CCCCC3)C12O (stereo not given in full) | 22.2 µM | 15.8 | 18.2 µM | 79.9 µM | 22.6 µM | 97.9 µM | 16.1 µM | 32.9 µM | 7.54 | – | – | – | – | – | – | – | – | – | – | –
2 | C=CCn1c(=O)c(C(=O)NC(=O)OCC)cn(C2CCCCC2)c1=O | > 100 µM | > 100 | > 100 µM | > 100 µM | > 100 µM | > 100 µM | > 100 µM | > 100 µM | > 100 | > 100 µM | – | – | – | – | – | – | – | – | – | –
3 | COC(=O)[C@H](C)[C@@H]1CC[C@](C)(CCC2=C(C)CCCC2(C)C)OO1 | > 25 µM | > 25 | > 25 µM | > 25 µM | > 25 µM | > 25 µM | > 25 µM | > 25 µM | > 25 | > 25 µM | – | – | – | – | – | – | – | – | – | –
4 | Cc1cc(Cl)ccc1Nc1nc2c(s1)C(=O)c1ccccc1C2=O | 4.38 µM | 10.8 | 16.1 µM | 26.1 µM | 8.61 µM | 20.3 µM | 21.4 µM | 4.14 µM | 27.2 | 3.12 µM | – | – | – | – | – | – | – | – | – | –
5 | C=C(C)C1CCC2(C(=O)O)CCC3(C)C(CCC4C5(C)CCC(O)C(C)(C)C5CCC43C)C12 (stereo not given) | 25.2 µM | 27.6 | 24.7 µM | 34.2 µM | 26.1 µM | 27.4 µM | 44.9 µM | 41.8 µM | 12.4 | 52.8 µM | – | – | – | – | – | – | – | – | – | –
6 | O=C1CCCCCCCCCCOC(=O)CCCCCCCCCCO1 | > 100 µM | > 100 | > 100 µM | > 100 µM | > 100 µM | > 100 µM | > 100 µM | > 100 µM | > 100 | > 100 µM | – | – | – | – | – | – | – | – | – | –
7 | O=C(Nc1nc(-c2ccccc2Cl)cs1)c1cc(-c2ccc(Cl)cc2)nc2ccc(Cl)cc12 | 20 µM | > 100 | > 100 µM | > 100 µM | > 100 µM | > 100 µM | > 100 µM | > 100 µM | 8.43 | 20.8 µM | 2.84 | 3.15 | 5.61 | 26 | 23.1 | 0.457 µM | 19.6 µM | 7.18 | 5.61 µM | 1.42 µM
8 | C=CNC(=S)n1nc(-c2ccccc2NC(=O)C(F)(F)F)c(=O)n(C(=S)NC=C)c1=S | > 1 µM | 73.7 | > 100 µM | 73 µM | > 100 µM | > 100 µM | 69.3 µM | > 100 µM | 36.5 | > 100 µM | – | – | – | – | – | – | – | – | – | –
9 | O=C(O)CCCc1cc2c(s1)-c1cccc3cccc-2c13 | > 100 µM | 56.9 | 50.2 µM | 75.4 µM | > 100 µM | > 100 µM | – | > 100 µM | 39 | 52 µM | – | – | – | – | – | – | – | – | – | –
10 | O=C(NC(Cc1ccccc1)C(=O)CCl)OCc1ccccc1 (stereo not given) | 14.7 µM and 16.6 µM | > 100 | 28.8 µM and 32.2 µM | 29.7 µM and 27.6 µM | 18.5 µM and 24.2 µM | 21.2 µM and 17.3 µM | – | 19.3 µM and 25.3 µM | 28.3 | 3.12 µM and 7.49 µM | – | 2.23 | 12.3 | 11.9 | 5.64 | 1.3 µM | 7.52 µM | – | 5.55 µM | –
11 | CC(O)c1ccc(C(O)/C(=N\NC(=O)c2ccncc2)c2nc3ccc([N+](=O)[O-])cc3[nH]c2=O)cc1 (stereo not given) | > 100 µM | > 100 | > 100 µM | > 100 µM | > 100 µM | > 100 µM | – | > 100 µM | > 100 | > 100 µM | – | – | – | – | – | – | – | – | – | –
12 | COc1ccc(NC(=O)C2=CC(=O)c3ccc(O)cc3C2=O)c(OC)c1 | > 100 µM | > 100 | > 100 µM | – | > 100 µM | > 100 µM | > 100 µM | > 100 µM | > 100 | > 100 µM | – | – | – | – | – | – | – | – | – | –
13 | COC1C(C)OC(OC2CC(C)(O)Cc3cc4c(c(O)c32)C(=O)c2c(O)cc3c(c2C4=O)OC2OC3(C)C(O)C(N(C)C)C2O)C(OC)C1(C)OC (stereo not given) | 2.46 µM | – | 0.447 µM and 0.178 µM | 1.52 µM and 10.7 µM | – | 0.422 µM and 0.452 µM | 1.21 µM and 0.304 µM | – | – | – | – | 0.0114 | 0.0393 | – | – | 0.0226 µM and 0.0661 µM | 0.0476 µM and 0.0219 µM | – | 0.0687 µM and 0.0334 µM | 0.00296 µM and 0.0156 µM
14 | CCCCC1N=CNc2c1ccc1c2[nH]c2ccccc21 (stereo not given) | 3.34 µM | 4.66 | 3.01 µM | 11.3 µM | 9.07 µM | 9.16 µM | 21.6 µM | 24.6 µM | 9.72 | – | – | – | – | – | – | – | – | – | – | –
15 | COC(=O)C1=Cc2cn(S(=O)(=O)c3ccc(C)cc3)c3cccc(c23)C(C=C(C)C)N1C(C)=O (stereo not given) | > 100 µM | > 100 | > 100 µM | > 100 µM | > 100 µM | 79.6 µM | > 100 µM | – | > 100 | > 100 µM | – | – | – | – | – | – | – | – | – | –
16 | COC(=O)c1cc2c(nc1C)-c1ccccc1OS2(=O)=O | > 100 µM | > 100 | > 100 µM | > 100 µM | > 100 µM | > 100 µM | > 100 µM | – | 83.2 | > 100 µM | – | – | – | – | – | – | – | – | – | –
